Target: T1, His-tagged recombinant human TrkA (Homo sapiens, UniProt P04629)
T1 construct: 6HIS tagged cytoplasmic domain from Invitrogen, Catalog No. PV3144; purchased Invitrogen PV3144
Experiment: TrkA Kinase Binding Assay (LanthaScreen Eu)
Details: averaged IC50; TR-FRET binding, 60 min, 22° C.; read-out: TrkA Enzyme IC50
Summary of the method: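 TR-FRET tracer displacement: 5 nM His-tagged TrkA cytoplasmic domain with 4 nM Tracer 236, biotinylated anti-His and Eu-streptavidin in pH 7.5 MOPS buffer, 2% DMSO, 60 min at 22 °C. 665/615 nm emission ratio gave percent of control; IC50 from four-parameter fit.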

T1 sequence (P04629 440-796 limits assumed): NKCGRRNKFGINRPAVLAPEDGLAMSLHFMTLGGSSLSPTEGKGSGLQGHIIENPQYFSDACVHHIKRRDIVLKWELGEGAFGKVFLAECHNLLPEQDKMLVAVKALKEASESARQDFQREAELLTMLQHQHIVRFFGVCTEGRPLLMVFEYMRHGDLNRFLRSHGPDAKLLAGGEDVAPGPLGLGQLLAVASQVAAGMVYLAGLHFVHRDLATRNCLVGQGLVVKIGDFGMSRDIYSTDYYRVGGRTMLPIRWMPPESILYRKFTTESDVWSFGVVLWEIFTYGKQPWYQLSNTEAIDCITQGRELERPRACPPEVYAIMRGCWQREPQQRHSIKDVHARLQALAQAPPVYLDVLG

First: 5-(3-(2-(difluoromethoxy)-5-(methoxymethyl)benzyl)ureido)-N,4-dimethyl-1-phenyl-1H-pyrazole-3-carboxamide [Example 51]
Second: CCSc1ccc(C2CCC2)c(CNC(=O)Nc2c(C)c(-c3cnn(C)c3)nn2-c2ccccc2)c1 [Example 128, 1-(2-cyclobutyl-5-(ethylthio)benzyl)-3-(1′,4-dimethyl-1-phenyl-1H,1′H-[3,4′-bipyrazol]-5-yl)urea]
The IC50 of the first is lower: less than 100 nM for the first, 100 to 1000 nM for the second.

`COCc1ccc(OC(F)(F)F)c(CNC(=O)Nc2c(C)c(OCC3(F)CNC3)nn2-c2ccccc2)c1` [Example 86, 1-(3-((3-fluoroazetidin-3-yl)methoxy)-4-methyl-1-phenyl-1H-pyrazol-5-yl)-3-(5-(methoxymethyl)-2-(trifluoromethoxy)benzyl)urea] and `CCOc1ccc(COC)cc1CNC(=O)Nc1c(C)c(-c2cnn(C)c2)nn1-c1ccccc1` [Example 17, 1-(1′,4-dimethyl-1-phenyl-1H,1′H-[3,4′-bipyrazol]-5-yl)-3-(2-ethoxy-5-(methoxymethyl)benzyl)urea] cannot be ordered by IC50: less than 100 nM for the first, less than 100 nM for the second.

`COCc1ccc(OC(F)F)c(CNC(=O)Nc2c(C)c(-c3cnn(C)c3)nn2-c2ccccc2)c1` [Example 20, 1-(2-(difluoromethoxy)-5-(methoxymethyl)benzyl)-3-(1′,4-dimethyl-1-phenyl-1H,1′H-[3,4′-bipyrazol]-5-yl)urea] and `COCc1ccc(OC(F)(F)F)c(CNC(=O)Nc2c(C)c(O[C@H]3CN(C)C[C@H]3F)nn2-c2ccccc2)c1` [Example 81, 1-(3-(((3S,4R)-4-fluoro-1-methylpyrrolidin-3-yl)oxy)-4-methyl-1-phenyl-1H-pyrazol-5-yl)-3-(5-(methoxymethyl)-2-(trifluoromethoxy)benzyl)urea] cannot be ordered by IC50: less than 100 nM for the first, less than 100 nM for the second.

First: COCc1cccc(C(NC(=O)Nc2c(C)c(-c3cnn(C)c3)nn2-c2ccccc2)C(F)(F)F)c1 (centres unmarked) [Example 132]
Second: COCc1ccc(OC(F)(F)F)c(CNC(=O)Nc2c(C)c(OC[C@@H]3COCCN3C)nn2-c2ccccc2)c1 [Example 110, (S)-1-(5-(methoxymethyl)-2-(trifluoromethoxy)benzyl)-3-(4-methyl-3-((4-methylmorpholin-3-yl)methoxy)-1-phenyl-1H-pyrazol-5-yl)urea]
The IC50 of the first is higher: greater than 1000 nM for the first, less than 100 nM for the second.

`COCc1ccc(OC(F)(F)F)c(CNC(=O)Nc2c(C)c(OCC3CCNCC3)nn2-c2ccccc2)c1` [Example 67, 1-(5-(methoxymethyl)-2-(trifluoromethoxy)benzyl)-3-(4-methyl-1-phenyl-3-(piperidin-4-ylmethoxy)-1H-pyrazol-5-yl)urea] and `COCc1ccc(OC(F)(F)F)c(CNC(=O)Nc2c(C)c(O[C@@H]3CCN(C)C[C@@H]3F)nn2-c2ccccc2)c1` [Example 101, 1-(3-(((3S,4R)-3-fluoro-1-methylpiperidin-4-yl)oxy)-4-methyl-1-phenyl-1H-pyrazol-5-yl)-3-(5-(methoxymethyl)-2-(trifluoromethoxy)benzyl)urea] cannot be ordered by IC50: less than 100 nM for the first, less than 100 nM for the second.

`COCc1ccc(C2CCCC2)c(CNC(=O)Nc2c(C)c(-c3ccc(C)nc3)nn2-c2ccccc2)c1` [Example 13, 1-(2-cyclopentyl-5-(methoxymethyl)benzyl)-3-(4-methyl-3-(6-methylpyridin-3-yl)-1-phenyl-1H-pyrazol-5-yl)urea] and `COCc1ccc(OC(F)(F)F)c(CNC(=O)Nc2c(C)c(OC[C@@H]3CCN3)nn2-c2ccccc2)c1` [Example 92, (S)-1-(3-(azetidin-2-ylmethoxy)-4-methyl-1-phenyl-1H-pyrazol-5-yl)-3-(5-(methoxymethyl)-2-(trifluoromethoxy)benzyl)urea] cannot be ordered by IC50: less than 100 nM for the first, less than 100 nM for the second.

Compared with `COCc1cc(CNC(=O)Nc2c(C)c(-c3cnn(C)c3)nn2-c2ccccc2)c(C2CCC2)cc1F` [Example 117, 1-(2-cyclobutyl-4-fluoro-5-(methoxymethyl)benzyl)-3-(1′,4-dimethyl-1-phenyl-1H,1′H-[3,4′-bipyrazol]-5-yl)urea], `CSc1ccc(C2CCC2)c(CNC(=O)Nc2c(C)c(-c3cnn(C)c3)nn2-c2ccccc2)c1` [Example 127, 1-(2-cyclobutyl-5-(methylthio)benzyl)-3-(1′,4-dimethyl-1-phenyl-1H,1H-[3,4′-bipyrazol]-5-yl)urea] is higher in IC50: less than 100 nM for the first, 100 to 1000 nM for the second.

Compared with `COCc1ccc(OC(F)(F)F)c(CNC(=O)Nc2c(C)c(-c3cnn(C)c3)nn2-c2ccccc2)c1` [Example 22, 1-(1′,4-dimethyl-1-phenyl-1H,1′H-[3,4′-bipyrazol]-5-yl)-3-(5-(methoxymethyl)-2-(trifluoromethoxy)benzyl)urea], `COCc1cc(CNC(=O)Nc2c(C)c(-c3cnn(C)c3)nn2-c2ccccc2)c(C2CCC2)cn1` [Example 36, 1-((5-cyclobutyl-2-(methoxymethyl)pyridin-4-yl)methyl)-3-(1′,4-dimethyl-1-phenyl-1H,1′H-[3,4′-bipyrazol]-5-yl)urea] is lower in IC50: 100 to 1000 nM for the first, less than 100 nM for the second. The second is the more potent here.

First: COCc1ccc(-c2ccccc2)c(CNC(=O)Nc2c(C)c(-c3cnn(C)c3)nn2-c2ccccc2)c1 [Example 116, 1-(1′,4-dimethyl-1-phenyl-1H,1′H-[3,4′-bipyrazol]-5-yl)-3-((4-(methoxymethyl)-[1,1′-biphenyl]-2-yl)methyl)urea]
Second: Cc1c(-c2cnn(C)c2)nn(-c2ccccc2)c1NC(=O)NCc1ccccc1-c1ccccc1 [Example 50, 1-([1,1′-biphenyl]-2-ylmethyl)-3-(1′,4-dimethyl-1-phenyl-1H,1′H-[3,4′-bipyrazol]-5-yl)urea]
The IC50 of the first is lower: less than 100 nM for the first, 100 to 1000 nM for the second. The first is the more potent here.

`COCc1ccc(OC(F)(F)F)c(CNC(=O)Nc2c(C)c(O[C@H]3C[C@H](N)C3)nn2-c2ccccc2)c1` [Example 100, 1-(3-((1r,3r)-3-aminocyclobutoxy)-4-methyl-1-phenyl-1H-pyrazol-5-yl)-3-(5-(methoxymethyl)-2-(trifluoromethoxy)benzyl)urea] and `COCc1ccc(C2CCC2)c(CNC(=O)Nc2c3c(nn2-c2ccccc2)CS(=O)(=O)C3)c1` [Example 121, 1-(2-cyclobutyl-5-(methoxymethyl)benzyl)-3-(5,5-dioxido-2-phenyl-4,6-dihydro-2H-thieno[3,4-c]pyrazol-3-yl)urea] cannot be ordered by IC50: less than 100 nM for the first, less than 100 nM for the second.

`COCc1ccc(C(C)C)c(CNC(=O)Nc2c(C)c(-c3cnn(C)c3)nn2-c2ccccc2)c1` [Example 34, 1-(1′,4-dimethyl-1-phenyl-1H,1′H-[3,4′-bipyrazol]-5-yl)-3-(2-isopropyl-5-(methoxymethyl)benzyl)urea] and `COCc1ccc(OC(F)(F)F)c(CNC(=O)Nc2c(C)c(OC[C@@H]3CN(C)CCO3)nn2-c2ccccc2)c1` [Example 114, (S)-1-(5-(methoxymethyl)-2-(trifluoromethoxy)benzyl)-3-(4-methyl-3-((4-methylmorpholin-2-yl)methoxy)-1-phenyl-1H-pyrazol-5-yl)urea] cannot be ordered by IC50: less than 100 nM for the first, less than 100 nM for the second.

Compared with `COCc1ccc(C2CCC2)c(CNC(=O)Nc2c(C)c(-c3cnn(C)c3)nn2-c2ccccc2)c1` [Example 11, 1-(2-cyclobutyl-5-(methoxymethyl)benzyl)-3-(1′,4-dimethyl-1-phenyl-1H,1′H-[3,4′-bipyrazol]-5-yl)urea], `CC(Cc1ccccc1)(NC(=O)Nc1c2c(nn1-c1ccccc1)CCC2)c1ccccc1` (centres unmarked) [Example 41, 1-(1,2-diphenylpropan-2-yl)-3-(2-phenyl-2,4,5,6-tetrahydrocyclopenta[c]pyrazol-3-yl)urea] is higher in IC50: less than 100 nM for the first, 100 to 1000 nM for the second. The first is the more potent here.

First: Cc1ccccc1CC(NC(=O)Nc1c2c(nn1-c1ccccc1)CCC2)c1ccccc1 (centres unmarked) [Example 39, 1-(2-phenyl-2,4,5,6-tetrahydrocyclopenta[c]pyrazol-3-yl)-3-(1-phenyl-2-o-tolylethyl)urea]
Second: COCc1ccc(C2CC2)c(CNC(=O)Nc2c(C)c(-c3cnn(C)c3)nn2-c2ccccc2)c1 [Example 6, 1-(2-cyclopropyl-5-(methoxymethyl)benzyl)-3-(1′,4-dimethyl-1-phenyl-1H,1′H-[3,4′-bipyrazol]-5-yl)urea]
The IC50 of the first is higher: 100 to 1000 nM for the first, less than 100 nM for the second. The second is the more potent here.

`COCc1ccc(C2CC2)c(CNC(=O)Nc2c(C)c(-c3ccc(=O)n(C)c3)nn2-c2ccccc2)c1` [Example 4, 1-(2-cyclopropyl-5-(methoxymethyl)benzyl)-3-(4-methyl-3-(1-methyl-6-oxo-1,6-dihydropyridin-3-yl)-1-phenyl-1H-pyrazol-5-yl)urea] and `COCc1ccc(OC(F)(F)F)c(CNC(=O)Nc2c(C)c(OCC3(F)CCNC3)nn2-c2ccccc2)c1` (centres unmarked) [Example 73, 1-(3-((3-fluoropyrrolidin-3-yl)methoxy)-4-methyl-1-phenyl-1H-pyrazol-5-yl)-3-(5-(methoxymethyl)-2-(trifluoromethoxy)benzyl)urea] cannot be ordered by IC50: less than 100 nM for the first, less than 100 nM for the second.

Molecule `COCc1ccc(OC(F)(F)F)c(CNC(=O)Nc2c(C)c(Oc3ccccc3)nn2-c2ccccc2)c1` [Example 77, 1-(5-(methoxymethyl)-2-(trifluoromethoxy)benzyl)-3-(4-methyl-3-phenoxy-1-phenyl-1H-pyrazol-5-yl)urea] has an IC50 of 100 to 1000 nM.
